Test results reported in patent US10537102B2, “Synergistic fungicidal composition for controlling plant diseases” (Sumitomo Chemical Company, Limited, priority 2016, dated 2020).

Tests used:
[1] = tested on: Brown rust (Puccinia recondita); experiment: Test Example 4: foliar spray on wheat, Brown rust lesion area; format: in vivo, Puccinia recondita on wheat (cultivar. Shirogane); conditions: single use, flowable, foliar spray one day before inoculation
Description: Five (5) parts of the present compound 1-3, 35 parts of a mixture of white carbon and ammonium polyoxyethylene alkyl ether sulfate (the weight ratio of 1:1) and […] of water were mixed, and the mixture was then finely-ground by a wet grinding method to obtain a flowable comprising the present compound 1-3. Separately, the flowable comprising the present compound 2 was prepared according to the above-mentioned similar method except that the […].
Each of the flowable comprising the present compound 1-3 and the flowable comprising the present compound 2 was diluted with water and if necessary, the resultant dilute solutions were mixed each other such that each concentration of the respective compounds in the dilution solution was adjusted to the concentration indicated in Table 4, to prepare the dilution solutions, respectively.
A plastic pot was filled with soil, and thereto wheat (cultivar. Shirogane) was seeded, and the plants were grown in a greenhouse for ten days. The above-mentioned dilution solutions were sprayed to foliar parts so as to adhere adequately onto the surfaces of leaves of the above wheats. After spraying the dilute solution, the plants were air-dried, and one day after the application, an aqueous suspension of uredospores of Brown rust (Puccinia recondita) was inoculated by spraying thereto. After the inoculation, the plants were placed at 27° C. under humid condition for one day, and were then cultivated under lighting for ten days, and a lesion area was examined (hereinafter referred to as “lesion area of treated group”).
Whereas, wheats were cultivated similarly to the treated group except that no foliage application of the above-mentioned agent solution was done, and Brown rust were inoculated, and the lesion area thereof was examined (hereinafter referred to as “lesion area of the untreated group”).
From each of the lesion area of the treated group and the untreated group, respectively, the efficacy of the treated group was calculated by the following Equation 2.
Efficacy (%)=[1−(lesion area of the treated group)/(lesion area of the untreated group)]×100 Equation 2

[2] = tested on: Septoria leaf blotch (Mycosphaerella graminicola); experiment: Test Example 3: growth of Septoria leaf blotch in YBG medium, microtiter plate, absorbance at 550 nm; format: cell-based; conditions: single use, 18° C., four days
Description: Each of the present compound 1-3 or the present compound 2 was dissolved into dimethyl sulfoxide such that each concentration of these compounds was adjusted to one hundred fifty times as much as the concentration indicated in the below-mentioned Table 3. The resultant agent solution was dispensed into each microtiter plate (with 96 wells) in 1 μl portion thereof per well. 149 μl of YBG medium to which conidia of Septoria leaf blotch (Mycosphaerella graminicola) was inoculated in advance (which was prepared by dissolving 10 g of yeast extract, 10 g of Bacto Peptone, and 20 mL of glycerol into 1 L of water, followed by sterilizing the medium) was dispensed into each of the well to which the agent solution was dispensed. The plate was cultivated at 18° C. for four days, thereby allowing Septoria leaf blotch (Mycosphaerella graminicola) to undergo proliferation, and the absorbance at 550 nm of each well of the microtiter plate was then measured to examine a degree of growth of Septoria leaf blotch (hereinafter referred to as “treated group”).
Whereas, Septoria leaf blotch was proliferated similarly to the case of the treated group except that dimethyl sulfoxide was used instead of the agent solution, and the degree of the growth was examined (hereinafter referred to as “untreated group”). The efficacy was calculated from each of the obtained degree of growth of the treated group and the untreated group respectively by the following “Equation 1”.
Efficacy (%)=100×(X−Y)/X Equation 1
X: Degree of growth of fungus in the untreated group
Y: Degree of growth of fungus in the treated group

Structure (SMILES)	Efficacy (%) ([1]; concentration in agent solution 0.002 ppm)	Efficacy (%) ([1]; concentration in agent solution 0.01 ppm)	Efficacy (%) ([2]; concentration in medium 0.0001 ppm)	Efficacy (%) ([2]; concentration in medium 0.01 ppm)	Efficacy (%) ([1]; concentration in agent solution 0.001 ppm)	Efficacy (%) ([1]; concentration in agent solution 0.02 ppm)	Efficacy (%) ([2]; concentration in medium 0.001 ppm)
Cc1cccc(-n2nnn(C)c2=O)c1COc1ccn(-c2ccc(Cl)cc2)n1 [Present compound 1-3, 1-(2-{[1-(4-chlorophenyl)-1H-pyrazol-3-yl]oxymethyl}-3-methylphenyl)-4-methyl-1,4-dihydrotetrazol-5-one]	35	70	20	37	–	–	–
CC1CC(C)(C)c2c(F)ccc(NC(=O)c3cn(C)nc3C(F)F)c21 (stereo not shown) [Present compound 2]	–	–	–	–	15	55	20
